SMILES strings stand for the structures.

These results are taken from patent US20260184713A1, “KINASE INHIBITORS” (The United States of America, as represented by the …, priority 2022, published 2026).

In one series the target is wide-type PKA (wt-PKA) (Homo sapiens, UniProt P17612). The experiment in a line: modified sandwich ELISA, wild-type PKA. The class given is biochemical. The conditions noted are these: read-out: IC50 against wt-PKA.
The target in a further series is PKG1α (Homo sapiens, UniProt Q13976). Kind of series: HOTSPOT radiometric kinase assay. The class given is biochemical. Conditions: 50 nM, 10 μM ATP.
The target of a further series is T1, PKG1β (Homo sapiens, UniProt Q13976).
T1 construct: purchased Reaction Biology Corp
Kind of series: HOTSPOT radiometric kinase assay. The class given is biochemical. Conditions: 50 nM, 10 μM ATP.

A further series concerns the target T2, PKCθ (Homo sapiens, UniProt Q04759).
T2 construct: purchased Reaction Biology Corp
Kind of series: HOTSPOT radiometric kinase assay. The class given is biochemical. The conditions noted are these: 50 nM, 10 μM ATP.

The target of a further series is T3, CLK1 (Homo sapiens, UniProt P49759).
T3 construct: purchased Reaction Biology Corp
The experiment in a line: HOTSPOT radiometric kinase assay. The class given is biochemical. Conditions: 50 nM, 10 μM ATP.

The target of the next series is T4, STK39/STLK3 (Homo sapiens, UniProt Q9UEW8).
T4 construct: purchased Reaction Biology Corp
Kind of series: HOTSPOT radiometric kinase assay. The class given is biochemical. The conditions noted are these: 50 nM, 10 μM ATP.

Another series deals with T5, LATS1 (Homo sapiens, UniProt O95835).
T5 construct: purchased Reaction Biology Corp
T5 sequence (O95835 1-1130): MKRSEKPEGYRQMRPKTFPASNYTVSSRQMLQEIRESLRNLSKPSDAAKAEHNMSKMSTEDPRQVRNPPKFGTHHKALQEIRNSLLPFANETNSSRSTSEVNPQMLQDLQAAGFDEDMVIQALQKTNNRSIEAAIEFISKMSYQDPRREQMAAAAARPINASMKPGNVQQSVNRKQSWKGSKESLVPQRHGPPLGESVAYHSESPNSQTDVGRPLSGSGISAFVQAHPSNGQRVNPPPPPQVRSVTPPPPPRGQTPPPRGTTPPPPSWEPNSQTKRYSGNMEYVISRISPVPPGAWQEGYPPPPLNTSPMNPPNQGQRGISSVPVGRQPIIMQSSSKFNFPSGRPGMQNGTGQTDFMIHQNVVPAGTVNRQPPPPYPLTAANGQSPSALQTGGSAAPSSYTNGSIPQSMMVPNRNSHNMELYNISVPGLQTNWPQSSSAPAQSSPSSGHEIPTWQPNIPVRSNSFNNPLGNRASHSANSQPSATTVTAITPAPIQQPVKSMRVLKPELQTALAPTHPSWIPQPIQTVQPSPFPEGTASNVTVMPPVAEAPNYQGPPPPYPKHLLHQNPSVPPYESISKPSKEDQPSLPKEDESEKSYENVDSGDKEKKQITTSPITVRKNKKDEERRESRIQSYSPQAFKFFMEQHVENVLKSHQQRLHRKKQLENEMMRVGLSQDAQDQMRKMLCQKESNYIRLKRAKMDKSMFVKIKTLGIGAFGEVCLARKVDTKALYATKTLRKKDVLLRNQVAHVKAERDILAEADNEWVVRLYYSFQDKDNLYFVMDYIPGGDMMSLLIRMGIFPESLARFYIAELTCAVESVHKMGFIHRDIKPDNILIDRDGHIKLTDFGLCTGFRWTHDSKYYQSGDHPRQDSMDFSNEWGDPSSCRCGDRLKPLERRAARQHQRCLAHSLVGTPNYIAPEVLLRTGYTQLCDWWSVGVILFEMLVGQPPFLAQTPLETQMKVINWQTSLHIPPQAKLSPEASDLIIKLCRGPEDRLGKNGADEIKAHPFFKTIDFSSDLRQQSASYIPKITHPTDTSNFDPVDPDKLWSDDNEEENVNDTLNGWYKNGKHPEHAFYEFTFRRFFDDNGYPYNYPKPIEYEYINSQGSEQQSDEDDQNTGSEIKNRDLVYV
The experiment in a line: HOTSPOT radiometric kinase assay. The class given is biochemical. Conditions: 50 nM, 10 μM ATP.

Another series deals with T6, DYRK1A (Homo sapiens, UniProt Q13627).
T6 construct: purchased Reaction Biology Corp
The experiment in a line: HOTSPOT radiometric kinase assay. The class given is biochemical. The conditions noted are these: 50 nM, 10 μM ATP.

A further series concerns the target T7, DYRK2 (Homo sapiens, UniProt Q92630).
T7 construct: purchased Reaction Biology Corp
T7 sequence (Q92630 1-601): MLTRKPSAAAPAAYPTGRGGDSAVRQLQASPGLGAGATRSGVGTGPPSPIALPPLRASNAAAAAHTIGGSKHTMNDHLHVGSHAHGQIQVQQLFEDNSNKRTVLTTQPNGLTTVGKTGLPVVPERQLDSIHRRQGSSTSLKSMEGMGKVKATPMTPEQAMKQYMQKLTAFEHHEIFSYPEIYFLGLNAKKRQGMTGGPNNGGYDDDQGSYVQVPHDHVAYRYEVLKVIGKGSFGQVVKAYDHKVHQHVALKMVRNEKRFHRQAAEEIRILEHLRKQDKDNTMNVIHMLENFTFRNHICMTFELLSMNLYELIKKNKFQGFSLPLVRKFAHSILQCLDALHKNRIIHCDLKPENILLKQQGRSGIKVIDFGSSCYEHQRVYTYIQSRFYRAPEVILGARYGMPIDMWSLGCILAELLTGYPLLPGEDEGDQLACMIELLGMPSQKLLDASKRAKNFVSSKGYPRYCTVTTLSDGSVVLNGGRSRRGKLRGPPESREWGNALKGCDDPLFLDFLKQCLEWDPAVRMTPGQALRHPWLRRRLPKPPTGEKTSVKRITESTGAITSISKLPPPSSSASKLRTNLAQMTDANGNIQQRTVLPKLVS
Kind of series: HOTSPOT radiometric kinase assay. The class given is biochemical. The conditions noted are these: 50 nM, 10 μM ATP.

The next series deals with PKAα (Homo sapiens, UniProt P17612). Kind of series: HOTSPOT radiometric kinase assay.
The target of the next series is AKT1 (Homo sapiens, UniProt P31749). Kind of series: HOTSPOT radiometric kinase assay.
A further series has as its target MAP2K1 (MEK1) (Homo sapiens, UniProt Q02750). The experiment in a line: HOTSPOT radiometric kinase assay.
In another series the target is CAMK1δ (Homo sapiens, UniProt Q8IU85). Kind of series: HOTSPOT radiometric kinase assay.
CAMK1δ, sequence (Q8IU85 whole entry): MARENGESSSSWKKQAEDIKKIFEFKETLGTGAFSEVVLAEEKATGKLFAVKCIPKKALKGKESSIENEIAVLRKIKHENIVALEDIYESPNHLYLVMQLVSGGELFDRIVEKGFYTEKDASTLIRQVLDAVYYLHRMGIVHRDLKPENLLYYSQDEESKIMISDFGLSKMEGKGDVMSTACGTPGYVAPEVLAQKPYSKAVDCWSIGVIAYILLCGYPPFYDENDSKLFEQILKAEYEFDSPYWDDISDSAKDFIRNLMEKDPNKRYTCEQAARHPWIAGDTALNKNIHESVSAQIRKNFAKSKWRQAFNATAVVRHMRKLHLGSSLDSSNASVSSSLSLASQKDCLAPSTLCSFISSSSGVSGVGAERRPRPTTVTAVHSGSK
The next series deals with CK1α1 (Homo sapiens, UniProt P48729). The experiment in a line: HOTSPOT radiometric kinase assay.
CK1α1, sequence (P48729 whole entry): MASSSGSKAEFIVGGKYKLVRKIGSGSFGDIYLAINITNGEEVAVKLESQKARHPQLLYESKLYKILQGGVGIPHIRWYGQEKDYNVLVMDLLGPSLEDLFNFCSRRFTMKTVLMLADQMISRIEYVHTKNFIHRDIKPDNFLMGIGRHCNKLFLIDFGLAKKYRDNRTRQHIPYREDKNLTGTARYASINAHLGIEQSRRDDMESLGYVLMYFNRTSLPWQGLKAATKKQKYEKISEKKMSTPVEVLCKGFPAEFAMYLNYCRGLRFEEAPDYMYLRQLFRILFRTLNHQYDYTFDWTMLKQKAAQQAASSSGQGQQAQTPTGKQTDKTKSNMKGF
A further series concerns the target ERBB2/HER2 (Homo sapiens, UniProt P04626). Kind of series: HOTSPOT radiometric kinase assay.
For the next series, the target named is ERK1 (Homo sapiens, UniProt P27361). The experiment in a line: HOTSPOT radiometric kinase assay.
ERK1, sequence (P27361 whole entry): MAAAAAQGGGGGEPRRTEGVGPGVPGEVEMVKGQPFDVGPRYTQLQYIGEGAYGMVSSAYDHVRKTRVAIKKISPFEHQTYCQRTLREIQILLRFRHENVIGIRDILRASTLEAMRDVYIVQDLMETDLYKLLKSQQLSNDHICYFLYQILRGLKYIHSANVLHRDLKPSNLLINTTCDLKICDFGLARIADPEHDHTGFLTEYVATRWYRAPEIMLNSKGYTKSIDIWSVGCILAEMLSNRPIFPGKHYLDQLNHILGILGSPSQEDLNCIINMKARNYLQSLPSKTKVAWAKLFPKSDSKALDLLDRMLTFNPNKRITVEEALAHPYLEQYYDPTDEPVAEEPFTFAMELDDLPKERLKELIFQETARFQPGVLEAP
The target of a further series is FLT1/VEGFR1 (Homo sapiens, UniProt P17948). The experiment in a line: HOTSPOT radiometric kinase assay.
FLT1/VEGFR1, sequence (P17948 27-1338): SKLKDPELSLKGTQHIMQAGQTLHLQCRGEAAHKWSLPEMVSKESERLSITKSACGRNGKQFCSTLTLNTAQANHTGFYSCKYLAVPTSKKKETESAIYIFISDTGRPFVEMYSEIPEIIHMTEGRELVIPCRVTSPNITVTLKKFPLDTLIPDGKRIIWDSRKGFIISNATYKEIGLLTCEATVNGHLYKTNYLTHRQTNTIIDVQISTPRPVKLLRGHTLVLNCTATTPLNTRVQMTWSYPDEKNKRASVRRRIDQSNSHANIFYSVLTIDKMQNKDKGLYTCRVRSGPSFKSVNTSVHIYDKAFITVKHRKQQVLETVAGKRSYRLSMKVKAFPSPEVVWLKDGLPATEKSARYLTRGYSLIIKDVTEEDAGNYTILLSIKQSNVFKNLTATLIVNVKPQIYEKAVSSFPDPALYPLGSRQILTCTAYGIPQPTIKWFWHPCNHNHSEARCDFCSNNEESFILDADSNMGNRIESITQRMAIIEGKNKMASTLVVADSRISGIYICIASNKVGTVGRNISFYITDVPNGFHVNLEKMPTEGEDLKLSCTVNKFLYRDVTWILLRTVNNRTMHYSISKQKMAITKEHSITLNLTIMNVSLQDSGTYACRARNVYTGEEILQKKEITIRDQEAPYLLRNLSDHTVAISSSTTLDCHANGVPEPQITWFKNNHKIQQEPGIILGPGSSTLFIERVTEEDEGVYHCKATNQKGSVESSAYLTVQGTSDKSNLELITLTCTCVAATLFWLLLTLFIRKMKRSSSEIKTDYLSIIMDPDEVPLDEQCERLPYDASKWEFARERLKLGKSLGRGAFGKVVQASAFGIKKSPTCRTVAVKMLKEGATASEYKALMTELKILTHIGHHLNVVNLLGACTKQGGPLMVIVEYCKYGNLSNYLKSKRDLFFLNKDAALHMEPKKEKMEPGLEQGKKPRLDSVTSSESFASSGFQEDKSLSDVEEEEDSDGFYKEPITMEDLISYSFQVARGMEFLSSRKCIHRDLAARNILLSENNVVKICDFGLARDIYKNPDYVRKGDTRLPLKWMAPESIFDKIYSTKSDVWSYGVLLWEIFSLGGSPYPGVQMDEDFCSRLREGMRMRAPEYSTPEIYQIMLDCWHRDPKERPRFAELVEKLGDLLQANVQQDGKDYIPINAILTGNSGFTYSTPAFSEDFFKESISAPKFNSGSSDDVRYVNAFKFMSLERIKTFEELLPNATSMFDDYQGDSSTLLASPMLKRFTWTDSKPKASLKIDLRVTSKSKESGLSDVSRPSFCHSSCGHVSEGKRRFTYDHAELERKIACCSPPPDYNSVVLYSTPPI
The target in the next series is GSK3β (Homo sapiens, UniProt P49841). Kind of series: HOTSPOT radiometric kinase assay.
A further series deals with PKCα (Homo sapiens, UniProt P17252). Kind of series: HOTSPOT radiometric kinase assay.
The subject of series [1] is panel of 370 human protein kinases. The experiment in a line: pan human kinome profiling (370 kinases). The conditions noted are these: 50 nM; panel of 370 kinases.
Another series concerns the target T8, PKADJ (Homo sapiens, UniProt P17612).
T8 construct: gene fusion between the first exon of the gene encoding the Heat Shock Protein 40 (HSP40) family member DNAJB1 and the second exon; the other entry of the earlier key: DNAJB1 (P25685, DnaJ homolog subfamily B member 1)
Kind of series: modified sandwich ELISA, PKADJ holoenzyme. The class given is biochemical. The method, then: The reaction and readout components of this assay were than optimized including optimal reactant concentrations for the kinase reaction suitable to identify both inhibitors and activators of PKAJ.
The PKADJ holoenzyme was treated with the test compounds in the reaction step where the holoenzyme was dissociated to release the activated catalytic unit (PKADJc).
(In general: An ELISA detects its analyte on a solid surface through an enzyme-linked reagent.)

Series [2] concerns the target RIα2:JPKAcα2 chimeric kinase holoenzyme (Homo sapiens, UniProt P17612). The experiment in a line: JPKAcα chimeric kinase holoenzyme ELISA dose response.
Protocol: Compounds were tested to determine an IC50 value for inhibitory activity against RIα2:JPKAcα2 chimeric kinase holoenzyme. A 3× dose-response curve was set up over a final compound concentration range of 0-10 μM containing 1 μM cAMP, 50 μM ATP, and 0.4% DMSO in 100 mM Tris-HCl pH 7.5 (all final concentrations). A no cAMP/ATP control was also included for background normalization.
The % normalized activity measures were then fit to the following equation using a nonlinear regression least-squares fit with a variable slope (GraphPad Prism Software, San Diego, CA) an IC50 value was calculated using the following formula.
The target of a further series is T9, DYRK4 (Homo sapiens, UniProt Q9NR20).
T9 construct: purchased Reaction Biology Corp
T9 sequence (Q9NR20 whole entry): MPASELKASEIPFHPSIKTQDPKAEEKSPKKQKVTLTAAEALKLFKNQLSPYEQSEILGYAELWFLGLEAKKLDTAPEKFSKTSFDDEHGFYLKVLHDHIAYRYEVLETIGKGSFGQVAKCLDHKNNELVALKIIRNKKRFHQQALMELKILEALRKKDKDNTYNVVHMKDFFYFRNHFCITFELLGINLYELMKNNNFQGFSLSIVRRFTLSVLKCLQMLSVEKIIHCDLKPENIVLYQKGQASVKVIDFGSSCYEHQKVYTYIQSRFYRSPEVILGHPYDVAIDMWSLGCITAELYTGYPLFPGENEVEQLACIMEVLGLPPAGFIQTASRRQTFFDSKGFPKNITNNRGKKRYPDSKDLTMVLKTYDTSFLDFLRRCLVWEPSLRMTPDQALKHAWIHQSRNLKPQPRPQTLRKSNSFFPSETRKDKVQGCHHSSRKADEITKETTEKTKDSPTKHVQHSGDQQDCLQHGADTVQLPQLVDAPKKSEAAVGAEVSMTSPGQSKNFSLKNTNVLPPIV
The experiment in a line: HOTSPOT radiometric kinase assay. The class given is biochemical. Conditions: 10 μM ATP.

MAP2K1 (MEK1), sequence (Q02750 whole entry): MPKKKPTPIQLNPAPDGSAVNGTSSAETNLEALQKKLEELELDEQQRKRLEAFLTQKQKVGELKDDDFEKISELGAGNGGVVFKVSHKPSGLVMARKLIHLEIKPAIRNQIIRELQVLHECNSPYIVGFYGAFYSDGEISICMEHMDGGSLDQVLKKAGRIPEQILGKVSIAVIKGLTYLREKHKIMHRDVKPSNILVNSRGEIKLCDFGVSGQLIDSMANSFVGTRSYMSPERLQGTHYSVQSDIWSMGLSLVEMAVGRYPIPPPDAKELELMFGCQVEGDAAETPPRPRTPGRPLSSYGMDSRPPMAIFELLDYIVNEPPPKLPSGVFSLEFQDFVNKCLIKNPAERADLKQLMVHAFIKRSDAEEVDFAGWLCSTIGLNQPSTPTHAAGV
T2 sequence (Q04759 whole entry): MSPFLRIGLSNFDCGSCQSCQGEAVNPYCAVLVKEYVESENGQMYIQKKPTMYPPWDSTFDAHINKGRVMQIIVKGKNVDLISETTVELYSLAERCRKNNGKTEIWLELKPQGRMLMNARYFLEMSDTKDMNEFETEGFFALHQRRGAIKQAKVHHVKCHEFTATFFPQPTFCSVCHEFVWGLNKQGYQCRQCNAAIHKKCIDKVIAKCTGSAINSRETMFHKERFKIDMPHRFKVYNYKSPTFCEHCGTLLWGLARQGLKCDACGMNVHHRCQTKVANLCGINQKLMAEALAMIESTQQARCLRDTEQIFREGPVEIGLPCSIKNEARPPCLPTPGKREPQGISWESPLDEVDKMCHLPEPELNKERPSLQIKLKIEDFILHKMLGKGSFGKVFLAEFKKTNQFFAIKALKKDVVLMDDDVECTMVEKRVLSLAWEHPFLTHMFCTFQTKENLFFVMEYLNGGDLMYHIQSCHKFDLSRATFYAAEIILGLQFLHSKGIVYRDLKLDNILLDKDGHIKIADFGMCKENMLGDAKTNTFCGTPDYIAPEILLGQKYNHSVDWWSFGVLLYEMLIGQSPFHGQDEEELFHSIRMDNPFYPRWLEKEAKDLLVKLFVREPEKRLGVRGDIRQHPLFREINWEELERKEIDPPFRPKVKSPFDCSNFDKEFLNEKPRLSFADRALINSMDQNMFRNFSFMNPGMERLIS
Protocol for PKAα: The differential was calculated as follows: IC50 (kinase)/IC50 (PKG1a).

The term IC50 denotes the concentration at which inhibition is half-maximal. What is called inhibition is the percentage by which the read-out fell short of the control. As for `Cn1cnc(Br)c1C1=CN(c2ncnc3nc[nH]c23)CCS1` [Compound 1a, Aplithianine A1], the IC50 was 1.22 µM on wide-type PKA (wt-PKA); 0.043 to 0.189 µM against PKAα; 0.043 to 0.189 µM against AKT1; 18 to 65 µM against MAP2K1 (MEK1); 18 to 65 µM at CAMK1δ; 0.8 to 6.6 µM on CK1α1. Besides, the half-maximal inhibitory concentration (IC50) lay within 18 to 65 µM against ERBB2/HER2; 0.8 to 6.6 µM on ERK1; 18 to 65 µM against FLT1/VEGFR1; 0.043 to 0.189 µM on GSK3β; 0.8 to 6.6 µM on PKCα. In addition, the inhibition at 0.05 µM against PKG1α, against PKG1β, on PKCθ, against CLK1, on STK39/STLK3 and against LATS1 was more than 50% each time. The inhibition at 0.05 µM at DYRK1A and against DYRK2 was more than 50% in each case. The same molecule had a PKAα % inhibition at PKAα (50 nM, 10 μM ATP) of 78%. In [1], the “number of kinases more potent targets compared to PKA” value came to 29.

Consider `Cn1cncc1C1=CN(c2ncnc3[nH]c(=O)[nH]c23)CCS1` [Compound 2, Aplithianine B], for which the “fold less potent than 1 against PKADJ” value at PKADJ (compared with compound 1) was “more than 60 fold”. Further, the concentration for half-maximal inhibition (IC50) was 69 µM on PKADJ (modified sandwich ELISA, read-out: IC50 against PKADJ) and 45 µM on wide-type PKA (wt-PKA).

Molecule `O=C(NCCNC(=O)c1ccccn1)C1=CN(c2ncnc3nc[nH]c23)CCS1` [Compound 183A049C, N-(2-(picolinamido)ethyl)-4-(7H-purin-6-yl)-3,4-dihydro-2H-1,4-thiazine-6-carboxamide] returned an IC50 in series [2] of more than 10 µM.

With `NCCNC(=O)C1=CN(c2ncnc3[nH]cnc23)CCS1` [Compound 183A049E, N-(2-aminoethyl)-4-(7H-purin-6-yl)-3,4-dihydro-2H-1,4-thiazine-6-carboxamide], the IC50 in series [2] lay in the range of 0.1 to 1 µM.

As to `O=C(NCCNC(=O)c1ccccc1)C1=CN(c2ncnc3nc[nH]c23)CCS1` [Compound 183A049F, N-(2-benzamidoethyl)-4-(7H-purin-6-yl)-3,4-dihydro-2H-1,4-thiazine-6-carboxamide], in [2], the IC50 was more than 10 µM.

With `CC(=O)NCCNC(=O)C1=CN(c2ncnc3[nH]cnc23)CCS1` [Compound 183A050B, N-(2-acetamidoethyl)-4-(7H-purin-6-yl)-3,4-dihydro-2H-1,4-thiazine-6-carboxamide], the IC50 in series [2] is more than 10 µM.

Consider `COCCNC(=O)C1=CN(c2ncnc3[nH]cnc23)CCS1` [Compound 183A050C, N-(2-methoxyethyl)-4-(7H-purin-6-yl)-3,4-dihydro-2H-1,4-thiazine-6-carboxamide], for which, in [2], the IC50 was more than 10 µM.

`O=C(NCCO)C1=CN(c2ncnc3[nH]cnc23)CCS1` [Compound 183A050D, N-(2-hydroxyethyl)-4-(7H-purin-6-yl)-3,4-dihydro-2H-1,4-thiazine-6-carboxamide] yielded an IC50 in series [2] of more than 10 µM.

Turning to `CNCCNC(=O)C1=CN(c2ncnc3nc[nH]c23)CCS1` [Compound 183A050E, N-(2-(methylamino)ethyl)-4-(7H-purin-6-yl)-3,4-dihydro-2H-1,4-thiazine-6-carboxamide], the IC50 in [2] fell in the range of 1.01 to 10 µM.

For `NCCNC(=O)C1CN(c2ncnc3[nH]cnc23)CCS1` (stereo not drawn) [Compound 183A051C, N-(2-aminoethyl)-4-(7H-purin-6-yl)thiomorpholine-2-carboxamide], in [2], the IC50 is more than 10 µM.

For the molecule `O=C1Nc2ccc(I)cc2/C1=C/c1cc(Br)c(O)c(Br)c1` [GW5074, reference compound], half-maximal inhibition at DYRK4 (IC50) was put at 3.66 µM.
